In one data set the test system is human lymphocytes. Briefly: Micronucleus (MN) assay, cytokinesis block. It counts as cell-based. As for the experimental part:
The MN assay was performed using blood samples from healthy, nonsmoking males, as provided by the AVIS (Italian Association of Voluntary Blood Donors). […] Cytochalasin-B was added 44 hours after the start of incubation at a final concentration of 6 μg/mL; at 48 hours, the lymphocytes were treated with the different drugs. […] Each treatment was tested with cells from two donors, performed in duplicate separate cultures (i.e., four cultures were set up for each treatment). After incubation, the lymphocytes were collected and resuspended in a mild hypotonic solution (0.075 M KCl) and then added with an ice-cold 5 : 3 acetic acid : methanol solution. After centrifugation (500 g, 10 min), the pellets were resuspended in cold (-20°C) methanol and maintained at -20°C (at least 24 hours). […] Scoring was done using an […] (Munich, Germany) light microscope at 1000X magnification. […] NDI data were analyzed by Student's t-test.

Data set [1] deals with Salmonella typhimurium TA98. To be noted: for Specific mutagenic activity (revertant increase/dose unit): linear regression; for Revertant/plate: TA98 without S9.
The subject of data set [2] is immortalized lymphocytes (Epstein-Barr virus lymphoblastoid cell line). Briefly: Long-term exposure cytotoxicity assay (MTS). It counts as cell-based, human. To be noted: 48 hours treatment.
For data set [3], the system named is human leukocytes. It counts as cell-based. To be noted: 1 hour treatment, measured immediately after exposure; NFX 0–348 μM, BNZ 0–348 μM, MTZ 0–585 μM.
The test system of data set [4] is human leukocytes. The experiment in a line: Modified comet assay with ENDOIII for oxidised bases. To be noted: 37°C, 1 hour.
Experimental: Oxidatively generated damage can be evaluated easily by comparing the DNA migration in enzyme-or buffer-treated samples. The comet assay, with the modification of an extra step after lysis in which DNA is digested with the repair enzyme, was performed according to Collins et al. […] ENDOIII was isolated from bacteria containing over-producing plasmids (Collin's Laboratory, Rowett Research Institute, Bucksburn, Aberdeen, UK). The enzyme-treated gels reveal alkali labile sites and strand breaks (ALS/SB) and oxidised bases (ALS/SB + OX). Assuming a linear dose response, subtraction of (ALS/SB) from (ALS/SB + OX) gives a measure of oxidised bases. The SPSS 11 statistical package was used to analyse statistical differences between samples. Statistical differences between controls and treated samples were first determined with the nonparametric Wilcoxon rank-sum test for each experiment. The mean values from the repeated experiments were used in a one-way analysis of variance. Analysis of variance was followed by single or multiple pairwise comparisons. Data were tested for normality and homogeneity of variance. When these criteria were met, the data were compared using Dunnett's version of the t-test.
Data set [5] has as its system Salmonella typhimurium TA100. To be noted: for Specific mutagenic activity (revertant increase/dose unit): linear regression; for Revertant/plate: TA100 without S9.
For data set [6] the following is noted: therapeutically treated patients; no reference given; cited from earlier work.

Where two headings read alike, the source gives them in different places. Marks after values point to notes of the source that are not given here.

Turning to bleomycin, the “MN frequency in binucleated cells” value in the data set with human lymphocytes (positive control, 6µg/ml) is 26.0± 4.0 x10-3 BN.

For `O=C(Cn1ccnc1[N+](=O)[O-])NCc1ccccc1` [BNZ, N-benzyl-2-(2-nitroimidazol-1-yl)acetamide], the Revertants was 20± 2 in data set [1] (TA98 +S9, 5 µg/plate); 18± 2 in data set [1] (TA98 +S9, 10 µg/plate); 22± 8 in data set [1] (TA98 +S9, 20 µg/plate); 24± 5 in data set [1] (TA98 +S9, 40 µg/plate); 23± 4 in data set [1] (TA98 +S9, 80 µg/plate); 34± 2 in data set [1] (TA98 +S9, 125 µg/plate). Besides, the Revertants in data set [1] (TA98 +S9, 250 µg/plate) is on record as 43± 9; in data set [1] (TA98 +S9, 500 µg/plate) it was 44± 6; in data set [1] (TA98 -S9, 5 µg/plate) it was 10± 2; in data set [1] (TA98 -S9, 10 µg/plate) it was 16± 4; in data set [1] (TA98 -S9, 20 µg/plate) it was 14± 6; in data set [1] (TA98 -S9, 40 µg/plate) it was 15± 1. The Revertants in data set [1] (TA98 -S9, 80 µg/plate) came to 14± 2; in data set [1] (TA98 -S9, 125 µg/plate), 26± 3; in data set [1] (TA98 -S9, 250 µg/plate), 39± 3; in data set [1] (TA98 -S9, 500 µg/plate), 45± 5; in data set [5] (TA100 +S9, 5 µg/plate) it was 406± 13; in data set [5] (TA100 +S9, 10 µg/plate), 811± 55. In addition, the Revertants in data set [5] (TA100 +S9, 20 µg/plate) was found to be 1445± 85; in data set [5] (TA100 +S9, 40 µg/plate), 3117± 169; in data set [5] (TA100 +S9, 80 µg/plate) it was 4901± 166; in data set [5] (TA100 -S9, 5 µg/plate), 498± 25; in data set [5] (TA100 -S9, 10 µg/plate) it was 943± 27; in data set [5] (TA100 -S9, 20 µg/plate), 1801± 67. In addition, the Revertants in data set [5] (TA100 -S9, 40 µg/plate) was 3344± 104; in data set [5] (TA100 -S9, 80 µg/plate), 5287± 81. In addition, the “Specific mutagenic activity (revertant increase/dose unit)” value in data set [1] (TA98 with S9 mix) is 0.10 (0.93); in data set [1] (TA98 without S9 mix) it was 0.07 (0.88); in data set [5] (TA100 with S9 mix) it was 60.92 (0.98); in data set [5] (TA100 without S9 mix), 64.96 (0.98). In addition, in data set [2], the “Cytotoxic effect on cultured lymphocytes” value was “did not show any significant effects”. In the data set on human leukocytes [3], the Cellular survival rate result is “did not appear to be affected”. Further, the “Effect on MN frequency” value in the data set on human lymphocytes (24-hours treated lymphocytes) was “did not alter MN frequency”; in the data set with human lymphocytes (72 hours treated lymphocytes), “increase of MN frequency”. The MN in the data set on human lymphocytes (24h, 3.8 µM) is 4.0± 0.5 x10-3 BN; in the data set on human lymphocytes (24h, 7.7 µM), 3.5± 1.0 x10-3 BN; in the data set with human lymphocytes (24h, 15.4 µM), 2.5± 0.5 x10-3 BN; in the data set on human lymphocytes (24h, 30.7 µM) it was 4.5± 1.0 x10-3 BN; in the data set on human lymphocytes (24h, 61.5 µM), 3.5± 0.5 x10-3 BN; in the data set on human lymphocytes (24h, 96.1 µM), 3.0± 0.5 x10-3 BN. The MN with human lymphocytes (24h, 192.1 µM) was 5.0± 1.0 x10-3 BN; in the data set on human lymphocytes (24h, 384.2 µM), 3.5± 0.5 x10-3 BN; in the data set with human lymphocytes (72 hours, 3.8 μM), 3.5 ± 1.0 ×10^−3 BN; with human lymphocytes (72 hours, 7.7 μM), 4.0 ± 1.0 ×10^−3 BN; in the data set on human lymphocytes (72 hours, 15.4 μM), 4.0 ± 1.5 ×10^−3 BN; with human lymphocytes (72 hours, 30.7 μM), 3.5 ± 1.0 ×10^−3 BN. For the same compound, the MN in the data set on human lymphocytes (72 hours, 61.5 μM) is recorded as 3.0 ± 0.5 ×10^−3 BN; in the data set on human lymphocytes (72 hours, 96.1 μM), 9.0 ± 0.5 ×10^−3 BN; in the data set on human lymphocytes (72 hours, 192.1 μM), 13.0 ± 1.0^b ×10^−3 BN; in the data set on human lymphocytes (72 hours, 384.2 μM), 16.5 ± 0.5^b ×10^−3 BN. Moreover, the NDI is given as 1.97± 0.11 in the data set with human lymphocytes (24h, 3.8 µM); 1.97± 0.07 with human lymphocytes (24h, 7.7 µM); 2.00± 0.06 in the data set on human lymphocytes (24h, 15.4 µM); 1.99± 0.07 in the data set with human lymphocytes (24h, 61.5 µM); 2.01± 0.03 with human lymphocytes (24h, 96.1 µM); 2.07± 0.07 in the data set with human lymphocytes (24h, 192.1 µM). The NDI in the data set with human lymphocytes (72 hours, 3.8 μM) was 1.93 ± 0.11; with human lymphocytes (72 hours, 7.7 μM) it was 2.00 ± 0.07; with human lymphocytes (72 hours, 15.4 μM) it was 1.98 ± 0.06; in the data set on human lymphocytes (72 hours, 30.7 μM), 1.99 ± 0.05; with human lymphocytes (72 hours, 61.5 μM), 2.06 ± 0.07; with human lymphocytes (72 hours, 96.1 μM) it was 2.05 ± 0.03. Moreover, the NDI with human lymphocytes (72 hours, 192.1 μM) is recorded as 2.00 ± 0.07; with human lymphocytes (72 hours, 384.2 μM), 1.93 ± 0.10. For the same compound, the “NDI (%)” value with human lymphocytes (24h, 3.8 µM) was 94± 5%; in the data set on human lymphocytes (24h, 7.7 µM) it was 94± 3%; in the data set with human lymphocytes (24h, 15.4 µM), 95± 3%; with human lymphocytes (24h, 30.7 µM) it was 97± 2%; in the data set on human lymphocytes (24h, 61.5 µM), 95± 3%; in the data set with human lymphocytes (24h, 96.1 µM), 96± 1%. Also, the “NDI (%)” value with human lymphocytes (24h, 192.1 µM) is recorded as 99± 3%; in the data set on human lymphocytes (24h, 384.2 µM), 97± 5%; in the data set with human lymphocytes (72 hours, 3.8 μM), 100 ± 6%; in the data set on human lymphocytes (72 hours, 7.7 μM) it was 104 ± 4%; in the data set with human lymphocytes (72 hours, 15.4 μM) it was 102 ± 3%; with human lymphocytes (72 hours, 30.7 μM), 103 ± 3%. In addition, the “NDI (%)” value came out at 107 ± 4% in the data set with human lymphocytes (72 hours, 61.5 μM); 106 ± 2% in the data set on human lymphocytes (72 hours, 96.1 μM); 104 ± 4% in the data set on human lymphocytes (72 hours, 192.1 μM); 100 ± 6% in the data set on human lymphocytes (72 hours, 384.2 μM). The “Effect on nuclear division (NDI)” value with human lymphocytes (72 hours treated lymphocytes) was “without some decrease of nuclear division”. For the same compound, the “Specific genotoxic activity, DNA migration/dose unit (II: comet assay modified with ENDOIII, DNA oxidative damage)” value with human leukocytes [4] was 0.9077 (r ^2 = 0.8351) μm/μM. Further, the “Lowest effective dose / concentration significantly increasing the revertant number” value in data set [5] (TA100) came to 5 µg/mL.

Regarding `CCN(CC)CCNc1ccc(CO)c2sc3ccccc3c(=O)c12` [HYC, hycantone], the results for the Revertant/plate in data set [1] (positive control 75 μg/plate) and in data set [5] (positive control 75 μg/plate) were 870 ± 90 and 968 ± 103, respectively.

The compound `O=[N+]([O-])c1ccc2c(c1)Cc1ccccc1-2` [2-NF, 2-nitrofluorene] yielded a Revertant/plate in data set [1] (15 μg/plate) of 169 ± 7.

`Cc1ncc([N+](=O)[O-])n1CCO` [MTZ, 2-(2-methyl-5-nitro-1H-imidazol-1-yl)ethanol]: the “Cytotoxic effect on cultured lymphocytes” value in data set [2] is on record as “did not show any significant effects”. In data set [6], the “Plasmatic concentration in treated patients” value is 8 to 13 µg/mL. The NDI was 1.97± 0.07 in the data set on human lymphocytes (24h, 5.9 µM); 1.97± 0.05 in the data set with human lymphocytes (24h, 11.7 µM); 2.01± 0.10 in the data set on human lymphocytes (24h, 46.8 µM); 1.99± 0.04 with human lymphocytes (24h, 93.6 µM); 1.97± 0.10 in the data set on human lymphocytes (24h, 146.2 µM); 2.01± 0.03 in the data set with human lymphocytes (24h, 292.4 µM). Besides, the NDI in the data set on human lymphocytes (24h, 584.8 µM) is on record as 1.94± 0.06; in the data set on human lymphocytes (72h, 2.9 µM), 1.74± 0.11; in the data set on human lymphocytes (72h, 5.9 µM), 1.75± 0.17; with human lymphocytes (72h, 11.7 µM), 1.74± 0.10; with human lymphocytes (72h, 46.8 µM) it was 1.81± 0.09; in the data set with human lymphocytes (72h, 93.6 µM) it was 1.73± 0.08. The NDI is 1.84± 0.11 with human lymphocytes (72h, 146.2 µM); 1.76± 0.07 in the data set with human lymphocytes (72h, 292.4 µM); 1.74± 0.12 in the data set on human lymphocytes (72h, 584.8 µM). Besides, the “NDI (%)” value in the data set on human lymphocytes (24h, 5.9 µM) is reported as 100± 4%; in the data set with human lymphocytes (24h, 11.7 µM), 100± 3%; in the data set on human lymphocytes (24h, 46.8 µM), 102± 5%; in the data set with human lymphocytes (24h, 93.6 µM), 101± 2%; with human lymphocytes (24h, 146.2 µM) it was 100± 5%; in the data set with human lymphocytes (24h, 292.4 µM) it was 102± 2%. The “NDI (%)” value is given as 98± 3% in the data set with human lymphocytes (24h, 584.8 µM); 100± 6% in the data set with human lymphocytes (72h, 2.9 µM); 101± 10% in the data set on human lymphocytes (72h, 5.9 µM); 100± 6% in the data set with human lymphocytes (72h, 11.7 µM); 100± 5% in the data set on human lymphocytes (72h, 93.6 µM); 106±6% in the data set on human lymphocytes (72h, 146.2 µM). Also, the “NDI (%)” value is 102± 4% in the data set on human lymphocytes (72h, 292.4 µM) and 100± 7% in the data set on human lymphocytes (72h, 584.8 µM). In addition, the “Effect on nuclear division (NDI)” value in the data set with human lymphocytes (72 hours treated lymphocytes) is recorded as “did not induce any alteration”.

As to `NC(=O)C(=Cc1ccc([N+](=O)[O-])o1)c1ccco1` [FYFA, 2-(2-furyl)-3-(5-nitro-2-furyl)acrylamide], the Revertant/plate in data set [1] (20 ng/plate) is given as 189 ± 16; in data set [5] (20 ng/plate), 1133 ± 70.

As for `CCOS(C)(=O)=O` [ethyl methane sulfonate], the “MN frequency in binucleated cells” value was 15.0 ± 2.8 ×10^−3 BN with human lymphocytes (male, human, 24 h, 1 μM) and 15.0± 2.8 x10-3 BN in the data set with human lymphocytes (male, human, 24 h, 120 µg/ml).

These data come from publication PMC2963127, “Genotoxicity Revaluation of Three Commercial Nitroheterocyclic Drugs: Nifurtimox, Benznidazole, and Metronidazole” (Journal of Parasitology Research, 2009).
